Reference: US20200339544A1 (JOINT STOCK COMPANY "BIOCAD", priority 2017, published 2020)
Read-outs that look alike come from different tables or passages of the source. Marks after values point to notes of the source that are not given here.

Columns and labels:
[1] = General cytotoxicity on HepG2 cells; type: cell-based; conditions: human; general cytotoxicity, HepG2 cells, 72 hours, average of several tests
Procedure, shortened: (§1)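 HepG2 cells seeded at 2*10^4 cells per well and compounds added in DMEM with 2% FBS for 72 h at 37 °C. Viability read with Alamar Blue and CC50 derived as for IC50. Therapeutic index taken as HepG2 CC50 over H1975 IC50.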

[2] = test system: HepG2 cells; assay: General cytotoxicity on HepG2 cells; type: cell-based; conditions: therapeutic index, CC50 HepG2 / IC50 H1975
Procedure, shortened: as §1

[3] = test system: H1975 (lung adenocarcinoma, DM, L828R/T790M); assay: Antiproliferative activity on H1975 cells (Alamar Blue); type: cell-based; conditions: for IC50: Homo sapiens, NCI-H1975, H1975 cells; for SI IC50(A549)/IC50(DM): selectivity index, A549 vs H1975 cells
Procedure, shortened: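 IC50 was fitted with a four-parameter logistic model to Alamar Blue fluorescence (540/590 nm), read 3-5 h after dye addition. Before that, compounds acted on attached H1975 cells, 15*10^3 per well in 2% FBS RPMI-1640, for 72 h at 37 °C, DMSO no more than 1%.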

[4] = biological target: T1, WT EGFR (Wild-Type EGFR) (Homo sapiens, UniProt P00533); assay: Inhibition of WT EGFR kinase activity (ADP-Glo); type: biochemical
T1 construct: purchased SignalChem
Procedure, shortened: (§2)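 Luminescent ADP-Glo readout was used for both wild-type and L858R/T790M EGFR, each run 180 minutes at 37° C. Reactions used a solution of 50 μM ATP with 0.5 mg/mL peptide substrate. Four-parameter logistic curves gave IC50.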

[5] = biological target: T2, DM EGFR (DoubleMutantEGFR, L828R/T790M) (Homo sapiens, UniProt P00533, L858R/T790M); assay: Inhibition of DM EGFR kinase activity (ADP-Glo); type: biochemical; conditions: for IC50: inhibition of kinase activity, EGFR DM (L828R/T790M); for SI, IC50(WT)/IC50(DM): selectivity index, kinase EGFR WT vs EGFR DM
T2 construct: purchased SignalChem
Procedure, shortened: as §2

[6] = Chemical stability in simulated gastric fluid (SGF); type: physicochemical; conditions: SGF without enzymes, pH 1,4; 10 μm; 2 hours at 37° C.; substance amount remaining
Protocol: (§3) 1) Determination of chemical stability in simulated intestinal fluid, simulated gastric fluid and human blood plasma.
(§4) SGF concentrate without enzymes, pH=1,4 (Sigma Ireland, cat #01651) was used as simulated gastric fluid. Initial candidate solution (10 mM in DMSO) was diluted with a SGF working solution to a concentration of 10 μm (test solution). The test solution was incubated in a dry block thermostat for 2 hours at 37° C. SIF concentrate without enzymes, pH=6.5 (Sigma Ireland, cat #55331) was used as simulated intestinal fluid. Initial candidate solution (10 mM in DMSO) was diluted with a SIF working solution to a concentration of 10 μm (test solution). The test solution was incubated in a dry block thermostat for 2 hours at 37° C. HPLC with Agilent 1200 liquid chromatography system (Agilent, USA) was employed to determine peak areas of the compounds in test samples, said peak areas corresponding to the initial test time (prior to incubation) and the final test time (after incubation in a dry block thermostat for 2 hours at 37° C.). We used gradient elution (1 mL/min flow rate). Substance amount in % in a sample after thermostatting was determined.
(§5) The stability of the compounds was estimated.

[7] = test system: A549 (lung adenocarcinoma, WT); assay: Antiproliferative activity on A549 cells (Alamar Blue); type: cell-based; conditions: Homo sapiens, antiproliferative test
Procedure, shortened: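 Viability read by Alamar Blue fluorescence (λEx 540, λEm 590 nm) 3-5 h after dye addition, following 72 h compound treatment at 37° C in 2% FBS RPMI-1640, ≤1% DMSO. Seeding 5*10^3 cells/well, 16-18 h attachment. Four-parameter logistic model gave IC50.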

[8] = Chemical stability in human blood plasma; type: in vitro ADME; conditions: pooled human blood plasma; 10 μm; 4 hours at 37° C.; substance amount remaining
Procedure, shortened: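 Percent of parent remaining was derived by comparing HPLC peak areas at time zero and after 4 h at 37 °C. Test compound was at 10 μM in human plasma pooled from ten donors, and proteins were precipitated with acetonitrile before analysis.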

[9] = Chemical stability in simulated intestinal fluid (SIF); type: physicochemical; conditions: SIF without enzymes, pH 6.5; 10 μm; 2 hours at 37° C.; substance amount remaining
Protocol: as §3, §4, §5

[10] = test system: HCC827 (lung adenocarcinoma, SM, exon19delE746-A750); assay: Antiproliferative activity on HCC827 cells (Alamar Blue); type: cell-based; conditions: Homo sapiens, antiproliferative test
Protocol: Antiproliferative activity of EGFR inhibitors (Tables 15 and 16) was measured in cell-based bioassay on continuous epithelial cell cultures: A549 (lung adenocarcinoma, ATCC® CRM-CCL-185™—WT), HCC827 (lung adenocarcinoma, ATCC® CRL-2868™—SM (SingleMutantEGFR, exon19delE746-A750)) and H1975 (lung adenocarcinoma, ATCC® CRL-5908™—DM (DoubleMutantEGFR, L828R/T790M)) using cell viability reagent Alamar Blue (ThermoFisher, # DAL1100). Cells were cultured in 10% FBS-supplemented (Gibco, #16140071) RPMI-1640 (PanEco, S330p) for at least 1 passage after thawing, washed with PBS and passaged in 96-well culture plates (3599, Corning) with RPMI-1640 growth medium supplemented with 2% FBS in an amount of 5*10^3 cells/well for A549, 10*10^3 cells/well for HCC827 and 15*10^3 cells/well for H1975 in 100 μL, and incubated at 37° C. in an incubator (Thermo Forma, USA) under 5% of CO2 for 16-18 h for cell attachment.
The test compounds were dissolved in DMSO in the selected range of concentrations and transferred to RPMI-1640 medium (PanEco, S330p) supplemented with 2% FBS. After adding 50 μl of the prepared dilutions to the cells, the incubation mixture contained the final concentrations of the test substances and no more than 1% DMSO. The plates were Incubated at 37° C. for 72 h. After incubation, 15 μl of Alamar Blue vital dye (ThermoFisher, # DAL1100) was added to each well. The plates were shaken on an orbital shaker (Biosan, Latvia) and further incubated for 3-5 h in a CO2 incubator (Thermo Forma, USA). Number of living cells was estimated using a plate spectrophotometer Infinite M200Pro, (Tecan, Switzerland) measuring fluorescent signal at the excitation wavelength (λEx) of 540 nm and emission wavelength (λEm) of 590 nm.
IC50 was calculated using Magellan 7.2 software (Tecan, Switzerland) approximating experimental points by four-parameter logistic model with the optimization by Levenberg-Marquardt.

[11] = Enzyme stability in human liver S9 fractions; type: in vitro ADME; conditions: 0.5 mg/mL pooled human liver S9 fractions; 10 μM compound; 37° C.; pH 7.4; read-out: Stability in liver S9 fractions, Clint
Procedure, shortened: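 Compound at 10 μM was incubated at 37 °C with 0.5 mg/mL pooled human liver S9, 2 mM β-NAD and 4 mM MgCl2 in 0.1 M sodium phosphate, pH 7.4, then quenched with acetonitrile and analysed chromatographically. T½ and CLint were derived from the slope of log peak area versus time.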

[12] = average values obtained in several tests, Table 16, read-out: H1975 (DM) IC50
[13] = antiproliferative test, Table 15, read-out: IC50 H1975 (DM)

SMILES	IC50 [3, 12] [nM]	IC50 [3, 13] [nM]	IC50 [4] [nM]	IC50 [5] [nM]	SI, IC50(WT)/IC50(DM) [5]	Stability in SGF, % [6] [%]	IC50 [7] [nM]	Stability in blood plasma, % [8] [%]	Stability in SIF, % [9] [%]	IC50 [10] [nM]	Intrinsic clearance in human liver S9 fractions at 10 µM [11] [µL/min/mg]	CC50 at 72 h [1] [nM]	TI, CC50/IC50 [2]	SI IC50(A549)/IC50(DM) [3]
C=CC(=O)Nc1cc(Nc2nccc(C(=O)c3ccccc3[N+](=O)[O-])n2)c(OC)cc1N(C)CCN(C)C [EGFR_3365_36, N-(2-((2-(dimethylamino)ethyl)(methyl)amino)-4-methoxy-5-((4-(2-nitrobenzoyl)pyrimidin-2-yl)amino)phenyl)acrylamide]	184	184	360	18.9	19.05	100.0	73900	98.5	100.0	–	–	36500	199	402.37
C=CC(=O)Nc1cc(Nc2nccc(C(=O)c3ccccc3OC)n2)c(OC)cc1N(C)CCN(C)C [EGFR_3365_33, N-(2-((2-(dimethylamino)ethyl)(methyl)amino)-4-methoxy-5-((4-(2-methoxybenzoyl)pyrimidin-2-yl)amino)phenyl)acrylamide]	5.6	5.6	75.8	6.79	11.16	99.5	> 10000	60.5	96.8	5.9	–	57600	10285	>1786**
C=CC(=O)Nc1cc(Nc2cc(C(=O)c3ccc(C)cc3)ccn2)c(OC)cc1N(C)CCN(C)C [EGFR_3365_57, N-(2-((2-(dimethylamino)ethyl)(methyl)amino)-4-methoxy-5-((4-(4-methylbenzoyl)pyridin-2-yl)amino)phenyl)acrylamide]	69.4	69.4	49.7	6.24	7.96	100.0	8640	–	96.6	5.64	–	22800	328	124
C=CC(=O)Nc1cc(Nc2cc(C(=O)c3ccc(N4CCOCC4)cc3)ccn2)c(OC)cc1N(C)CCN(C)C.O=C(O)C(F)(F)F [EGFR_3365_5, N-(2-((2-(dimethylamino)ethyl)(methyl)amino)-4-methoxy-5-((4-(4-morpholinobenzoyl)pyridin-2-yl)amino)phenyl)acrylamide 2,2,2-trifluoroacetate]	57.3	57.3	464	22	21.03	100.0	7590	–	89.8	28.6	–	17700	309	132.56
C=CC(=O)Nc1cc(Nc2nccc(C(=O)c3ccc(OCC(C)C)cc3)n2)c(OC)cc1N(C)CCN(C)C [EGFR_3365_78, N-(2-((2-(dimethylamino)ethyl)(methyl)amino)-5-((4-(4-isobutoxybenzoyl)pyrimidin-2-yl)amino)-4-methoxyphenyl) acrylamide]	–	–	–	–	–	91.1	–	81.7	91.1	–	–	–	–	–
C=CC(=O)Nc1cc(Nc2nccc(C(=O)c3ccc(-n4ccnc4)cc3)n2)c(OC)cc1N(C)CCN(C)C [EGFR_3365_86, N-(5-((4-(4-(1H-imidazol-1-yl)benzoyl)pyrimidin-2-yl)amino)-2-((2-(dimethylamino)ethyl) (methyl)amino)-4-methoxyphenyl)acrylamide]	–	–	–	–	–	99.7	–	100.0	99.4	–	–	–	–	–

The next lines start with results.

IC50 [3, 12] [nM]	IC50 [3, 13] [nM]	IC50 [4] [nM]	IC50 [5] [nM]	SI, IC50(WT)/IC50(DM) [5]	Stability in SGF, % [6] [%]	IC50 [7] [nM]	Stability in blood plasma, % [8] [%]	Stability in SIF, % [9] [%]	IC50 [10] [nM]	Intrinsic clearance in human liver S9 fractions at 10 µM [11] [µL/min/mg]	SMILES	CC50 at 72 h [1] [nM]	TI, CC50/IC50 [2]	SI IC50(A549)/IC50(DM) [3]
30.8	30.8	113	18.1	6.22	98.9	4480	82.4	100.0	10.3	–	C=CC(=O)Nc1cc(Nc2nccc(C(=O)c3ccc(Br)cc3)n2)c(OC)cc1N(C)CCN(C)C [EGFR_3365_13, N-(5-((4-(4-bromobenzoyl)pyrimidin-2-yl)amino)-2-((2-(dimethylamino)ethyl) (methyl)amino)-4-methoxyphenyl)acrylamide]	14100	460	145.63
–	–	–	–	–	100.0	–	87.2	100.0	–	16.6	C=CC(=O)Nc1cc(Nc2nccc(C(=O)c3ccc(C)cc3)n2)c(OC)cc1N(C)CCN(C)C [EGFR_3365_64, N-(2-((2-(dimethylamino)ethyl)(methyl)amino)-4-methoxy-5-((4-(4-methylbenzoyl)pyrimidin-2-yl)amino)phenyl)acrylamide]	–	–	–
351	351	170	6.44	26.43	100.0	12400	85.4	100.0	6.2	–	C=CC(=O)Nc1cc(Nc2nccc(C(=O)c3cccc(F)c3)n2)c(OC)cc1N(C)CCN(C)C [EGFR_3365_11, N-(2-((2-(dimethylamino)ethyl)(methyl)amino)-5-((4-(3-fluorobenzoyl)pyrimidin-2-yl)amino)-4-methoxyphenyl) acrylamide]	15000	43	35.37
